Several values for one entry are separate records, joined by “and”; a condition that tells them apart may be missing. Equal values may be shown once. Records with an inconclusive call do not appear. Starred links: 1 amine or outer side, 2 acyl side, 3 side chain; linkers in the order of their positions; H or OH if unused. Positions of bridges follow the written chain, without caps; N, C: chain ends. Non-standard residues stand in square brackets, D forms with d. Residues, ends and D or L forms follow the SMILES beside them. Chains are numbered I, II in the order given. Actinocin(9to1) = Cc1c2oc3c(C)ccc(C(=O)[*:1])c3nc-2c(C(=O)[*:2])c(N)c1=O; aThr = C[C@H](O)[C@H](N)C(=O)O; NMeV = CN[C@H](C(=O)O)C(C)C; Sar = CNCC(=O)O
System: Lewis lung carcinoma i.m., BDF1 mice, T/C %
Assay: NCI In Vivo Anticancer Drug Screen. Data for tumor model Lewis Lung Carcinoma (intramuscular) in B6D2F1 (BDF1) mice
Method in brief: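 Mice carrying transplantable tumours received test compound. Survival or tumour size was recorded and expressed as the treated-group value (T) divided by the vehicle-treated control-group value (C).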

[1] = endpoint: median survival time, dose: 1.5 mg/kg/injection, schedule: Q01DX011 (ip), vehicle: other, higher = longer survival
[2] = endpoint: median survival time, dose: 3.0 mg/kg/injection, schedule: Q01DX011 (ip), vehicle: other, higher = longer survival

O=C1NC(=O)C(F)(F)C(O)N1 (configuration not stated)
T/C (endpoint: mean tumor weight (est.), dose: 40.0 mg/kg/injection, schedule: Q01DX011 (ip), vehicle: saline, higher = larger tumour): 103 % of control
T/C (endpoint: mean tumor weight (est.), dose: 80.0 mg/kg/injection, schedule: Q01DX011 (ip), vehicle: saline, higher = larger tumour): 80 % of control
T/C (endpoint: mean tumor weight (est.), dose: 160.0 mg/kg/injection, schedule: Q01DX011 (ip), vehicle: saline, higher = larger tumour): 43 % of control
T/C (endpoint: median survival time, dose: 40.0 mg/kg/injection, schedule: Q01DX011 (ip), vehicle: saline, higher = longer survival): 98 % of control
T/C (endpoint: median survival time, dose: 80.0 mg/kg/injection, schedule: Q01DX011 (ip), vehicle: saline, higher = longer survival): 103 % of control

O=NN(CCCl)C(=O)NCCCl
T/C (endpoint: mean tumor weight, dose: 1.5 mg/kg/injection, schedule: Q01DX011 (ip), vehicle: other, higher = larger tumour): 57 % of control
T/C (endpoint: mean tumor weight, dose: 3.0 mg/kg/injection, schedule: Q01DX011 (ip), vehicle: other, higher = larger tumour): 47 % of control
T/C (endpoint: mean tumor weight, dose: 6.0 mg/kg/injection, schedule: Q01DX011 (ip), vehicle: other, higher = larger tumour): 12 % of control
T/C (endpoint: mean tumor weight, dose: 14.0 mg/kg/injection, schedule: Q01DX001 (sc), vehicle: saline, higher = larger tumour): 76 % of control
T/C (endpoint: mean tumor weight, dose: 23.0 mg/kg/injection, schedule: Q01DX001 (sc), vehicle: saline, higher = larger tumour): 65 % of control
T/C (endpoint: mean tumor weight, dose: 39.0 mg/kg/injection, schedule: Q01DX001 (sc), vehicle: saline, higher = larger tumour): 35 % of control
T/C (endpoint: mean tumor weight, dose: 65.0 mg/kg/injection, schedule: Q01DX001 (sc), vehicle: saline, higher = larger tumour): 22 % of control
T/C (endpoint: median survival time, dose: 1.0 mg/kg/injection, schedule: Q01DX009 (ip), vehicle: saline + alcohol, higher = longer survival): 113 % of control
T/C (endpoint: median survival time, dose: 1.25 mg/kg/injection, schedule: Q01DX015 (ip), vehicle: saline, higher = longer survival): 108 % of control
T/C [1]: 102 % of control
T/C (endpoint: median survival time, dose: 1.5 mg/kg/injection, schedule: Q01DX011 (ip), vehicle: saline, higher = longer survival): 110 % of control
T/C (endpoint: median survival time, dose: 2.0 mg/kg/injection, schedule: Q01DX011 (ip), vehicle: saline, higher = longer survival): 97 % of control
T/C (endpoint: median survival time, dose: 2.5 mg/kg/injection, schedule: Q01DX015 (ip), vehicle: saline, higher = longer survival): 124 % of control
T/C [2]: 104 % of control
T/C (endpoint: median survival time, dose: 4.0 mg/kg/injection, schedule: Q01DX009 (ip), vehicle: saline + alcohol, higher = longer survival): 113 % of control
T/C (endpoint: median survival time, dose: 4.0 mg/kg/injection, schedule: Q01DX011 (ip), vehicle: saline, higher = longer survival): 115 % of control
T/C (endpoint: median survival time, dose: 5.0 mg/kg/injection, schedule: Q01DX001 (ip), vehicle: saline + alcohol, higher = longer survival): 107 % of control
T/C (endpoint: median survival time, dose: 5.0 mg/kg/injection, schedule: Q01DX015 (ip), vehicle: saline, higher = longer survival): 111 % of control
T/C (endpoint: median survival time, dose: 5.0 mg/kg/injection, schedule: Q07DX003 (ip), vehicle: saline, higher = longer survival): 95 % of control
T/C (endpoint: median survival time, dose: 5.0 mg/kg/injection, schedule: Q16DX002 (ip), vehicle: saline, higher = longer survival): 167 % of control
T/C (endpoint: median survival time, dose: 5.0 mg/kg/injection, schedule: Q## X002 (ip), vehicle: saline, higher = longer survival): 168 % of control
T/C (endpoint: median survival time, dose: 6.0 mg/kg/injection, schedule: Q01DX011 (ip), vehicle: saline, higher = longer survival): 157 % of control
T/C (endpoint: median survival time, dose: 8.0 mg/kg/injection, schedule: Q01DX011 (ip), vehicle: saline, higher = longer survival): 102 % of control and 110 % of control
T/C (endpoint: median survival time, dose: 8.4 mg/kg/injection, schedule: Q01DX001 (ip), vehicle: saline, higher = longer survival): 158 % of control and 160 % of control
T/C (endpoint: median survival time, dose: 8.4 mg/kg/injection, schedule: Q06DX002 (ip), vehicle: saline, higher = longer survival): 105 % of control
T/C (endpoint: median survival time, dose: 8.4 mg/kg/injection, schedule: Q16DX002 (ip), vehicle: saline, higher = longer survival): 89 % of control
T/C (endpoint: median survival time, dose: 8.4 mg/kg/injection, schedule: Q## X002 (ip), vehicle: saline, higher = longer survival): 87 % of control
T/C (endpoint: median survival time, dose: 10.0 mg/kg/injection, schedule: Q01DX001 (ip), vehicle: saline + alcohol, higher = longer survival): 111 % of control
T/C (endpoint: median survival time, dose: 10.0 mg/kg/injection, schedule: Q07DX003 (ip), vehicle: saline, higher = longer survival): 94 % of control
T/C (endpoint: median survival time, dose: 14.0 mg/kg/injection, schedule: Q01DX001 (ip), vehicle: saline, higher = longer survival): 156 % of control and 157 % of control
T/C (endpoint: median survival time, dose: 14.0 mg/kg/injection, schedule: Q01DX001 (sc), vehicle: saline, higher = longer survival): 112 % of control
T/C (endpoint: median survival time, dose: 14.0 mg/kg/injection, schedule: Q06DX002 (ip), vehicle: saline, higher = longer survival): 102 % of control
T/C (endpoint: median survival time, dose: 14.0 mg/kg/injection, schedule: Q07DX003 (ip), vehicle: saline, higher = longer survival): 102 % of control
T/C (endpoint: median survival time, dose: 16.0 mg/kg/injection, schedule: Q01DX011 (ip), vehicle: saline, higher = longer survival): 91 % of control
T/C (endpoint: median survival time, dose: 20.0 mg/kg/injection, schedule: Q01DX001 (ip), vehicle: saline + alcohol, higher = longer survival): 123 % of control
T/C (endpoint: median survival time, dose: 20.0 mg/kg/injection, schedule: Q07DX003 (ip), vehicle: saline, higher = longer survival): 111 % of control
T/C (endpoint: median survival time, dose: 23.0 mg/kg/injection, schedule: Q01DX001 (ip), vehicle: saline, higher = longer survival): 208 % of control and 210 % of control
T/C (endpoint: median survival time, dose: 23.0 mg/kg/injection, schedule: Q06DX002 (ip), vehicle: saline, higher = longer survival): 109 % of control
T/C (endpoint: median survival time, dose: 23.0 mg/kg/injection, schedule: Q07DX003 (ip), vehicle: saline, higher = longer survival): 108 % of control
T/C (endpoint: median survival time, dose: 39.0 mg/kg/injection, schedule: Q01DX001 (ip), vehicle: saline, higher = longer survival): 216 % of control and 218 % of control
T/C (endpoint: median survival time, dose: 39.0 mg/kg/injection, schedule: Q06DX002 (ip), vehicle: saline, higher = longer survival): 102 % of control
T/C (endpoint: median survival time, dose: 39.0 mg/kg/injection, schedule: Q16DX002 (ip), vehicle: saline, higher = longer survival): 61 % of control and 101 % of control
T/C (endpoint: median survival time, dose: 39.0 mg/kg/injection, schedule: Q## X002 (ip), vehicle: saline, higher = longer survival): 104 % of control
T/C (endpoint: median survival time, dose: 40.0 mg/kg/injection, schedule: Q01DX001 (ip), vehicle: saline + alcohol, higher = longer survival): 64 % of control
T/C (endpoint: median survival time, dose: 65.0 mg/kg/injection, schedule: Q01DX001 (ip), vehicle: saline, higher = longer survival): 38 % of control
T/C (endpoint: median survival time, dose: 65.0 mg/kg/injection, schedule: Q06DX002 (ip), vehicle: saline, higher = longer survival): 45 % of control
T/C (endpoint: median survival time, dose: 65.0 mg/kg/injection, schedule: Q16DX002 (ip), vehicle: saline, higher = longer survival): 24 % of control

O=C1C=C(SCCO)C(=O)c2ccccc21
T/C (endpoint: mean tumor weight (est.), dose: 0.75 mg/kg/injection, schedule: Q01DX011 (ip), vehicle: other, higher = larger tumour): 52 % of control
T/C (endpoint: mean tumor weight (est.), dose: 1.5 mg/kg/injection, schedule: Q01DX011 (ip), vehicle: other, higher = larger tumour): 40 % of control
T/C (endpoint: mean tumor weight (est.), dose: 3.0 mg/kg/injection, schedule: Q01DX011 (ip), vehicle: other, higher = larger tumour): 18 % of control
T/C (endpoint: median survival time, dose: 0.75 mg/kg/injection, schedule: Q01DX011 (ip), vehicle: other, higher = longer survival): 100 % of control
T/C [1]: 92 % of control
T/C [2]: 100 % of control

O=c1cnn(C2OC(CO)C(O)C2O)c(=O)[nH]1 (configuration not stated)
T/C (endpoint: median survival time, dose: 75.0 mg/kg/injection, schedule: Q01DX009 (ip), vehicle: Klucel (hydroxypropylcellulose) (HPC), higher = longer survival): 112 % of control
T/C (endpoint: median survival time, dose: 150.0 mg/kg/injection, schedule: Q01DX009 (ip), vehicle: Klucel (hydroxypropylcellulose) (HPC), higher = longer survival): 120 % of control
T/C (endpoint: median survival time, dose: 300.0 mg/kg/injection, schedule: Q01DX009 (ip), vehicle: Klucel (hydroxypropylcellulose) (HPC), higher = longer survival): 121 % of control
T/C (endpoint: median survival time, dose: 600.0 mg/kg/injection, schedule: Q01DX009 (ip), vehicle: Klucel (hydroxypropylcellulose) (HPC), higher = longer survival): 119 % of control

O=c1[nH]cc(F)c(=O)n1C1OC(CO)C(O)C1O (configuration not stated)
T/C (endpoint: mean tumor weight (est.), dose: 75.0 mg/kg/injection, schedule: Q01DX011 (ip), vehicle: saline, higher = larger tumour): 67 % of control
T/C (endpoint: mean tumor weight (est.), dose: 150.0 mg/kg/injection, schedule: Q01DX011 (ip), vehicle: saline, higher = larger tumour): 99 % of control
T/C (endpoint: mean tumor weight (est.), dose: 300.0 mg/kg/injection, schedule: Q01DX011 (ip), vehicle: saline, higher = larger tumour): 106 % of control
T/C (endpoint: mean tumor weight (est.), dose: 600.0 mg/kg/injection, schedule: Q01DX011 (ip), vehicle: saline, higher = larger tumour): 82 % of control
T/C (endpoint: mean tumor weight (est.), dose: 1200.0 mg/kg/injection, schedule: Q01DX011 (ip), vehicle: saline, higher = larger tumour): 84 % of control
T/C (endpoint: median survival time, dose: 75.0 mg/kg/injection, schedule: Q01DX011 (ip), vehicle: saline, higher = longer survival): 107 % of control
T/C (endpoint: median survival time, dose: 600.0 mg/kg/injection, schedule: Q01DX011 (ip), vehicle: saline, higher = longer survival): 98 % of control
T/C (endpoint: median survival time, dose: 1200.0 mg/kg/injection, schedule: Q01DX011 (ip), vehicle: saline, higher = longer survival): 107 % of control

CCN(CC)CCOC(=O)c1ccccc1N(c1ccccc1)c1ccccc1
T/C (endpoint: mean tumor weight (est.), dose: 62.5 mg/kg/injection, schedule: Q01DX011 (ip), vehicle: Klucel (hydroxypropylcellulose) (HPC), higher = larger tumour): 67 % of control
T/C (endpoint: mean tumor weight (est.), dose: 125.0 mg/kg/injection, schedule: Q01DX011 (ip), vehicle: Klucel (hydroxypropylcellulose) (HPC), higher = larger tumour): 59 % of control
T/C (endpoint: median survival time, dose: 62.5 mg/kg/injection, schedule: Q01DX011 (ip), vehicle: Klucel (hydroxypropylcellulose) (HPC), higher = longer survival): 98 % of control

Cc1c2oc3c(C)ccc(C(=O)N[C@@H]4C(=O)N[C@H](C(C)C)C(=O)N5CCC[C@H]5C(=O)N(C)CC(=O)N(C)[C@@H](C(C)C)C(=O)O[C@H]4C)c3nc-2c(C(=O)N[C@@H]2C(=O)N[C@H](C(C)C)C(=O)N3CCC[C@H]3C(=O)N(C)CC(=O)N(C)[C@@H](C(C)C)C(=O)O[C@H]2C)c(N)c1=O (I: [aThr][dV]P[Sar][NMeV] / II: [aThr][dV]P[Sar][NMeV]; ester I:1-I:C, II:1-II:C; linker I:N-II:N via Actinocin(9to1))
T/C (endpoint: median survival time, dose: 0.01 mg/kg/injection, schedule: Q01DX011 (ip), vehicle: water, higher = longer survival): 99 % of control and 110 % of control and 112 % of control
T/C (endpoint: median survival time, dose: 0.02 mg/kg/injection, schedule: Q01DX011 (ip), vehicle: water, higher = longer survival): 93 % of control and 94 % of control and 110 % of control
T/C (endpoint: median survival time, dose: 0.04 mg/kg/injection, schedule: Q01DX011 (ip), vehicle: water, higher = longer survival): 110 % of control
T/C (endpoint: median survival time, dose: 0.05 mg/kg/injection, schedule: Q01DX011 (ip), vehicle: water, higher = longer survival): 99 % of control and 100 % of control

— PubChem BioAssay AID272 (DTP/NCI, 2004)
